Laboratory results taken from PubChem BioAssay (NCI).
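Protocol summary: plate cells (96-well), add compound at 5 concentrations, incubate 48 h, interpolate endpoints linearly. GI50 = concentration required for 50% inhibition of growth. TGI denotes the concentration required for complete inhibition of growth.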

Experiments:
Test in all cases: growth of human tumour cells (NCI), 48 h
[1] = test system: HT29 colon
[2] = test system: SR leukemia
[3] = test system: A549 NSCLC
[4] = test system: HCT-15 colon
[5] = test system: IGROV1 ovarian
[6] = test system: OVCAR-4 ovarian
[7] = test system: COLO 205 colon
[8] = test system: HL-60(TB) leukemia
[9] = test system: OVCAR-3 ovarian

SMILES | GI50 [1] | TGI [1] | GI50 [2] | GI50 [3] | TGI [3] | GI50 [4] | TGI [4] | GI50 [5] | TGI [5] | GI50 [6] | TGI [6] | GI50 [7] | TGI [7] | GI50 [8] | TGI [8] | GI50 [9] | TGI [9] | TGI [2]
COc1ccc(C(=O)c2nc3ccccc3n2CC(=O)c2ccc(Cl)cc2)cc1 | 2.82 µM | > 100 µM | 0.569 µM | 17.5 µM | > 100 µM | 2 µM | > 100 µM | 6.09 µM | > 100 µM | 5.02 µM | > 100 µM | 11.3 µM | > 83.7 µM | 0.958 µM | 5.06 µM | 2.55 µM | > 20.4 µM | 
CC(C)[O-].CC(C)[O-].O=c1cccccc1[O-].O=c1cccccc1[O-].[Ti+4] |  |  |  |  | > 100 µM |  | > 100 µM |  | > 100 µM |  | > 100 µM |  | > 100 µM |  | > 100 µM |  | > 100 µM | > 100 µM
O=C(/C=C/c1cccc(O)c1)c1cccc(-n2cc(-c3ccc4ccccc4c3)[nH]c2=O)c1 | 1.53 µM | 2.87 µM |  | 3.38 µM | 12.7 µM | 1.56 µM | 4.8 µM | 1.33 µM | 2.79 µM |  |  | 2.09 µM | 4.65 µM | 1.01 µM | 3.21 µM | 1.33 µM | 2.78 µM | 
CSc1ccc(N(C)c2nc(C)nc3c2CCC3)cc1 | < 0.01 µM | 11.1 µM | < 0.01 µM | < 0.01 µM | > 100 µM | < 0.01 µM | > 100 µM | < 0.01 µM | > 100 µM | < 0.01 µM | > 100 µM | < 0.01 µM | < 0.01 µM | < 0.01 µM | < 0.01 µM | < 0.01 µM | < 0.01 µM | 11.6 µM
CCOC(=O)N1CCN(CCCCCOc2ccccc2C2CCCCC2)CC1 | 3.08 µM | 12 µM |  | 5.01 µM | 17.3 µM | 3.09 µM | 12.9 µM | 10.4 µM | 23.1 µM | 9.2 µM | 22.2 µM | 2.32 µM | 7.14 µM | 1.39 µM | 3.5 µM | 8.29 µM | 24.1 µM | 
CN1c2ccccc2SC2C(c3ccccc3)=NOC21 (centres undefined) |  | > 100 µM |  |  | > 100 µM |  | 43.7 µM |  | > 100 µM |  | > 100 µM |  | > 100 µM |  | > 100 µM |  | > 100 µM | > 100 µM
CC(C)[O-].CC(C)[O-].CN(CCN(C)Cc1cc(F)cc(F)c1[O-])Cc1cc(F)cc(F)c1[O-].[Ti+4] | 1.72 µM | 3.81 µM | 0.512 µM | 0.892 µM | 7.95 µM | 0.526 µM | 15.1 µM | 0.688 µM | 2.47 µM | 0.717 µM | 7.18 µM | 1.62 µM | 4.86 µM | 1.51 µM | > 40.8 µM | 0.923 µM | 6.78 µM | 
CC(=Nc1ccc(S(N)(=O)=O)cc1)c1c(O)[nH]c2ccccc12 | > 25 µM | > 25 µM | > 25 µM | > 25 µM | > 25 µM | > 25 µM | > 25 µM | > 25 µM | > 25 µM | > 25 µM | > 25 µM | > 16 µM | > 25 µM | > 25 µM | > 25 µM | > 25 µM | > 25 µM | > 25 µM
[2H]c1nc(=Nc2cc(NC(=O)C=C)c(N(C)CCN(C)C)cc2OC)[nH]c(-c2cn(C([2H])([2H])[2H])c3ccccc23)c1[2H] | 1.69 µM | 3.26 µM | 1.23 µM | 1.14 µM | 7.64 µM | 1.44 µM | 3.05 µM | 0.122 µM | 2.04 µM | 3.27 µM | 17.3 µM | 1.62 µM | 3.06 µM | 0.848 µM | 2.5 µM | 1.18 µM | 2.83 µM | 4.02 µM
COc1ccc(Nc2nccc(N3CCN(c4c5ccc(Cl)cc5nc5ccc(OC)cc45)CC3)n2)cc1 | 6.61 µM | > 100 µM | 2.92 µM | 7.51 µM | > 100 µM | 4.48 µM | > 100 µM | 42.4 µM | > 100 µM | 18.2 µM | > 100 µM | 16.9 µM | > 100 µM | 7.22 µM | > 100 µM | 11.1 µM | > 100 µM | > 100 µM
Cc1ccc(NC(=O)/C(Cc2nc3ccc([N+](=O)[O-])cc3[nH]c2=O)=N\NC(=O)C[n+]2ccccc2)c(C)c1 |  | > 100 µM |  |  | > 100 µM |  | > 100 µM |  | > 100 µM |  | 46.6 µM |  | > 100 µM |  | 81.8 µM |  | 59.3 µM | 
O=C1/C(=C/c2ccc([N+](=O)[O-])cc2)COc2ccc(O)cc21 |  |  |  | 78 µM | > 100 µM | 2.24 µM | 7.61 µM | 2 µM | 4.99 µM | 11.3 µM | > 100 µM | 10.7 µM | 55.7 µM | 2.48 µM | 7.92 µM | 3.26 µM | 11.8 µM | 
C=CC1=C(C)C2=NC1=CC1=NC(=CC3=C(C)C4=C(O)[C@H](C(=O)OC)C(=C5NC(=C2)[C@@H](C)[C@@H]5CCC(=O)O)C4=N3)C(CC)=C1C |  |  |  |  | > 43.9 µM |  | 9.72 µM |  | > 23.8 µM |  | 22 µM |  | 11.8 µM |  |  |  |  | 1.5 µM
CCNCCNc1cc(-c2ccc(C#N)cc2)c(C#N)c2nc3ccccc3n12 | 3.1 µM | 9.82 µM | 2.59 µM | 3.06 µM | 6.39 µM | 2.81 µM | 11 µM | 4.53 µM | 18 µM | 2.54 µM | 8.74 µM | 1.88 µM | 4.16 µM | 1.87 µM | 4.35 µM | 1.66 µM | 3.09 µM | 6.74 µM
CCCCCCCCCCCCCC[n+]1cccc(C(N)=O)c1 | 0.778 µM | 4.63 µM | 1.45 µM | 4.08 µM | 18.4 µM | 13.5 µM | 58.3 µM | 0.197 µM | 0.681 µM | 3.73 µM | 19.6 µM | 1.29 µM | 2.72 µM |  |  | 1.93 µM | 5.02 µM | 3.94 µM
N#CC(C#N)=c1c2nsnc2c(=C(C#N)C#N)c2nsnc12 |  | 3.2 µM |  |  | 10.3 µM |  |  |  |  |  | 3.83 µM |  | 4.83 µM |  | 4.64 µM |  | 8.34 µM | 
Cc1c2ccncc2c(C)c2c1[nH]c1ccc(O)c(OCC(F)(F)F)c12 |  | > 7.5 µM |  |  | 16.5 µM |  |  |  | 18.1 µM |  | 14 µM |  | 22.3 µM |  | 11.6 µM |  | 19 µM | 
c1ccc(-c2nc(N3CCCNCC3)c3nc(-c4ccccc4)oc3n2)cc1 | 1.76 µM | 3.72 µM |  | 1.8 µM | 3.71 µM | 1.47 µM | 2.89 µM | 1.59 µM | 3.13 µM | 1.98 µM | 3.67 µM | 1.6 µM | 3.38 µM | 1.83 µM | 3.55 µM | 1.75 µM | 3.21 µM | 
N.N.N.N.N.O=S(=O)([O-])S(=O)(=O)[O-].[Co+3] | > 100 µM | > 100 µM |  | > 100 µM | > 100 µM | > 100 µM | > 100 µM | > 100 µM | > 100 µM | > 100 µM | > 100 µM | > 100 µM | > 100 µM | > 100 µM | > 100 µM | > 100 µM | > 100 µM | 
O=C1c2cccc3cccc(c23)C(=O)N1O |  | > 100 µM |  |  | > 100 µM |  | > 100 µM |  | > 100 µM |  | > 100 µM |  | > 100 µM |  | > 100 µM |  | > 100 µM | 
O=[N+]([O-])c1ccc(-c2cc3c(Nc4ccc(Cl)c(C(F)(F)F)c4)ncnc3s2)cc1 | 1.49 µM | > 100 µM |  | 1.38 µM | > 100 µM | 1.01 µM | > 100 µM | 1.62 µM | > 100 µM | 1.2 µM | > 100 µM | 1.79 µM | 3.35 µM | 0.906 µM | 3.62 µM | 0.605 µM | > 100 µM | 
O=C1/C(=C/c2cccc([N+](=O)[O-])c2)Sc2scc(-c3ccc([N+](=O)[O-])cc3)[n+]21 |  | 38.8 µM |  |  | > 100 µM |  | 33.6 µM |  | 53.6 µM |  | > 100 µM |  | > 100 µM |  |  |  | > 100 µM | 
O=C(O)c1ccccc1C(=O)c1ccc2c(c1)Cc1ccccc1-2 |  | > 100 µM |  |  | > 100 µM |  | > 100 µM |  | > 100 µM |  | > 100 µM |  | > 100 µM |  |  |  | > 100 µM | > 100 µM
COC(=O)c1ccc2c(c1)C(=O)c1c-2n(CCCN=[N+]=[N-])c(=O)c2cc([N+](=O)[O-])ccc12 | > 100 µM | > 100 µM |  |  |  | > 100 µM | > 100 µM | 21 µM | > 100 µM | > 100 µM | > 100 µM | > 100 µM | > 100 µM | > 100 µM | > 100 µM | > 100 µM | > 100 µM | 
COc1c(O)c(OC)c2oc(-c3ccc(O)cc3)c(OC)c(=O)c2c1O |  | > 100 µM |  |  | > 100 µM |  | > 100 µM |  | 51.4 µM |  |  |  | > 100 µM |  | > 100 µM |  | 74.9 µM | > 100 µM
Cc1cc(C)n(C2=NS(=O)(=O)c3ccccc3N2C)n1 |  | > 100 µM |  |  | > 100 µM |  | > 100 µM |  | > 100 µM |  | > 100 µM |  | > 100 µM |  | > 100 µM |  | > 100 µM | 
